The source of these data is US4560687A, “Substituted aromatic compounds” (priority 1979, dated 1985).

Like-named read-outs stand apart in the source and are kept apart here.

Data set [1] is described as follows: standard maximal electroshock test (anticonvulsant activity). It counts as in vivo. The note with it: Mus musculus, po, mice. As to the method:
The anticonvulsant activity of the compounds of the present invention was determined by a standard maximal electroshock test, that described by L. A. Woodbury and V. D. Davenport, Arch. Int. Pharmacodyn., 1952, 92, 97.

In a further data set the test system is Plasmadium berghei. The note with it: Plasmadium berghei in mice; Rees et al, 1972; cited from earlier work.
For data set [2] the following is noted: cited from earlier work; for toxicity: at curative doses.
The conditions of data set [3]: anti-malarial agents tested as anticonvulsants; Rosenburg and Bottiroli, 1964; cited from earlier work.

The term ED50 denotes the midpoint of the dose-response relation. A lower ED50 goes with an effect at a small dose. `Nc1nnc(-c2cc3ccccc3cc2Cl)c(N)n1` [3,5-diamino-6-(3-chloro-2-naphthyl)-1,2,4-triazine] came in with a median effective dose (ED50) in data set [1] of 12 mg/kg.
On to `Nc1nnc(-c2ccc(Cl)c(Cl)c2)c(N)n1` [3,4-dichlorophenyl], for which the activity against malaria entry in the data set on Plasmadium berghei is “active against the malaria organism”. Also, in data set [2] (Rees et al, 1972), the toxicity entry is “toxic at curative doses”. Further, the therapeutic ratio result in data set [2] (mouse, in vivo) is “low therapeutic ratio”.
Regarding `Nc1nnc(-c2ccc(C(F)(F)F)cc2)c(N)n1` [4-trifluoromethylphenyl], in the data set on Plasmadium berghei, the activity against malaria result is on record as “still being active against malaria”. Besides, the toxicity result in data set [2] (Rees et al, 1972) is “less toxic than the chlorophenyl compounds”.
`Nc1nnc(-c2ccc(Cl)cc2Cl)c(N)n1` [2,4-dichlorophenyl]: the activity against malaria entry with Plasmadium berghei is listed as “only slight antimalarial activity”.
As to `CCN(CCO)CCCC(C)Nc1ccnc2cc(Cl)ccc12` (stereo not shown) [hydroxychloroquine], the anticonvulsant activity profile entry in data set [3] was “favourable activity profile”.
For `Nc1nnc(-c2ccc(Cl)c(C(F)(F)F)c2)c(N)n1` [3,5-diamino-6-(4-chloro-3-trifluoromethylphenyl)-1,2,4-triazine], the ED50 in data set [1] stood at 18.5 mg/kg.
For `Nc1nnc(-c2ccc(Cl)cc2)c(N)n1` [4-chlorophenyl], the activity against malaria entry in the data set on Plasmadium berghei is reported as “active against the malaria organism”. Moreover, in data set [2] (Rees et al, 1972), the toxicity entry is given as “toxic at curative doses”. For the same compound, the therapeutic ratio entry in data set [2] (malaria context, Rees et al, 1972) was “low therapeutic ratio”.
Take `Cc1cc(Cl)ccc1-c1nnc(N)nc1N` [3,5-diamino-6-(4-chloro-2-methylphenyl)-1,2,4-triazine]: in data set [1], the 50% effect level (ED50) was put at a dose of 14.8 mg/kg.
